For series [1], the system named is splenic B cells from C57BL/6 mice. Briefly: BCR-mediated calcium flux in B cells. The class given is cell-based, mouse. The following applies: 15 nM, 60 nM and 490 nM idelalisib added simultaneously with anti-Ig heavy and light chain F(ab′)2. The procedure: (§1) For measurements of intracellular free calcium concentration ([Ca^2+]i), RBC-depleted single-cell suspended splenocytes were simultaneously stained with CD8-PE (BD Biosciences), CD4-APC (BioLegend) or B220-PE and loaded with Indo-1 acetoxymethyl (Molecular Probes), as described previously (Gauld, et al., Nat Immunol 6: 1160-1167). For analysis of ([Ca^2+]i), cells were suspended at 10×10^6 cells/ml in warm IMDM+2% FBS in a 500 ul volume. […] Mean relative ([Ca^2+]i) was monitored over time using an LSR Fortessa X-20 (BD) with analysis using FlowJo software.
On the technique in general: Calcium assays in cells follow changes in intracellular calcium, usually with a dye or a luminescent sensor.

In the next series the test system is CD4 T cells. As to the kind of experiment: calcium mobilization of CD4 T cells after TCR aggregation. The format is cell-based, mouse. The following applies: 15 nM idelalisib, biotin-anti-CD3 and avidin. The protocol:
as §1
Because a therapeutic effect of the inhibitor on VH125.NOD disease progression and survival was observed, reduction in autoantibody responses in PTEN^−/+×SHIP-1^−/+ cells, yet equivalent autoantibody responses by SHP-1^−/− and MD4 B cells in mice receiving 0.9375 mg/kg idelalisib-containing chow, we chose to focus our analysis on effects of this dose on T cell function. […] To analyze in vivo CD4 T cell responses, OT-II CD4 T cells were adoptively transferred into congenically mismatched recipients and immunized with OVA+P:IC as represented diagrammatically in FIG. 6C. […] The transferred OT-II cells that proliferated most underwent the greatest upregulation of CD44 (FIG. 6D).

The subject of another series is NOD mice. Briefly: antibody response of NOD mice to NP4Ova+Alum immunization on idelalisib chow. The format is in vivo, mouse. The procedure:
Diet dose (DD) is calculated by multiplying the single daily dose (SD) by the body weight of a mouse (BW) and dividing that by the daily food intake (FI) [DD=(SD×BW)/FI].
For VH125.NOD experiments animals are placed on control chow immediately after weaning.
HEL conjugated to SRBCs was used to produce antigen for experiments with MD4 B cells. SRBCs (Colorado Serum Company) were stored in Alsever's solution at 4° C. SRBCs are washed 3 times in PBS prior to use. 1 ml of 50 mg/ml of the chemical crosslinker N-(3-Dimethylaminopropyl)-N-ethylcarbodiimide hydrochloride (Sigma-Aldrich) was added to 1 ml packed SRBCs and 15 ml of 5 mg/ml HEL (Sigma-Aldrich), mixed and rotated at room temperature for 45 minutes. Mice were immunized IP with 200 μl of a 5% HEL-SRBC in PBS. For NP4Ova-Alum immunizations, 10 mg/ml alum and 5 mg/ml NP4Ova were mixed to a final concentration of 250 μg/ml NP4Ova and 2.5 mg/ml alum and rotated for 3 hours at room temperature. […] Mice were then immunized with NP4Ova-alum IP in 200 μl/mouse, and responses were measured on day 7 and day 14 post-immunization.
For detection of IgM^a anti-Ars antibodies, microtiter plates were coated with 10 μg/ml Ars-BSA16 in PBS and blocked with 2 mg/ml BSA in PBS 0.05% Tween-20. For detection of IgM^a anti-HEL antibodies, microtiter plates were coated with 10 μg/ml HEL in PBS and blocked with 2 mg/ml BSA in PBS 0.05% Tween-20. For detection of total NP-specific IgM and IgG, microtiter plates were coated with 20 μg/ml NP27BSA and blocked with 2 mg/ml BSA in PBS 0.05% Tween-20. For detection of high affinity NP-specific IgM and IgG, microtiter plates were coated with 20 μg/ml NP2BSA and blocked with 2 mg/ml BSA in PBS 0.05% Tween-20. Serial dilutions of mouse serum in PBS were added and incubated overnight at 4° C. Ars/A1-derived IgM^a antibodies and MD4-derived HEL IgM^a antibodies were detected with biotinylated DS.1 anti-IgM^a (BD Pharmingen) in PBS, followed by Streptavidin-HRP (Thermo Fisher Scientific). For NP-specific IgM antibodies were detected using goat-anti-mouse IgM-HRP (SouthernBiotech). For NP-specific IgG antibodies were detected using goat-anti-mouse IgG-HRP (SouthernBiotech). Between all steps, plates were washed 3 times with PBS 0.05% Tween-20. The ELISA was developed with TMB single solution (Invitrogen) and the reaction was stopped with 1M HCl. OD was measured at 450 nm using a VERSAMax plate reader (Molecular Devices) and data analyzed with SoftMax Pro6 software.
For detection of IgM^a anti-Ars antibodies, microtiter plates were coated with 10 μg/ml Ars-BSA16 in PBS and blocked with 2 mg/ml BSA in PBS 0.05% Tween-20. For detection of IgM^a anti-HEL antibodies, microtiter plates were coated with 10 μg/ml HEL in PBS and blocked with 2 mg/ml BSA in PBS 0.05% Tween-20. For detection of total NP-specific IgM and IgG, microtiter plates were coated with 20 μg/ml NP27BSA and blocked with 2 mg/ml BSA in PBS 0.05% Tween-20. For detection of high affinity NP-specific IgM and IgG, microtiter plates were coated with 20 μg/ml NP2BSA and blocked with 2 mg/ml BSA in PBS 0.05% Tween-20. Plates were washed 3 times prior to use with PBS 0.05% Tween-20. RBC-depleted single-cell suspension of splenocytes in complete medium were added in two-fold serial dilutions starting at 1/100th of a spleen in the first well. Plates were incubated overnight at 37° C. Ars/A1-derived IgM^a antibodies and MD4-derived HEL IgM^a antibodies were detected with biotinylated DS.1 anti-IgM^a (BD Pharmingen) in PBS, followed by Streptavidin-AP (SouthernBiotech). For NP-specific IgM antibodies were detected using goat-anti-mouse IgM-AP (SouthernBiotech). For NP-specific IgG antibodies were detected using goat-anti-mouse IgG-AP (SouthernBiotech). Between all steps, plates were washed 3 times with PBS 0.05% Tween-20. The plates were developed by incubated with ELISPOT developing buffer ([…] 5-bromochloro-3-indolyl phosphate p-toluidine, […], 100 mM Tris, and 10 mM MgCl2, pH 9.5) for 1 hour. […]

Where [2] appears, read: 0.9375 mg/kg chow, 14 days post-immunization, vs vehicle control.
[3] abbreviates: 0.9375 mg/kg chow, day 14 post-immunization, vs vehicle control.

The structures appear in SMILES notation.

Regarding `CC[C@H](Nc1ncnc2nc[nH]c12)c1nc2cccc(F)c2c(=O)n1-c1ccccc1` [idelalisib, 5-fluoro-3-phenyl-2-[(1S)-1-(7H-purin-6-ylamino)propyl]-4(3H)-quinazolinone], the calcium mobilization entry in series [1] was “suppressed”. In addition, the “calcium mobilization of CD4 T cells” value with CD4 T cells is on record as “failed to inhibit”. For the same compound, the “anti-NP IgM response in the spleen” value with NOD mice (0.9375 mg/kg chow for 4 weeks, 14 days post-immunization, vs vehicle control) is reported as “not different”. In the series with NOD mice (0.9375 mg/kg chow vs vehicle control), the “B cell numbers in the spleens” value is “no difference”. Also, in the series with NOD mice (setting [2]), the “high affinity IgG anti-NP ASCs/spleen” value is listed as “no observed difference”, the “number of high-affinity IgM anti-NP ASCs/spleen” value is on record as “equivalent”, the “number of total anti-NP IgM antibody secreting cells (ASCs) per spleen” value is on record as “equivalent” and the “total IgG anti-NP ASCs/spleen” value is “no observed difference”. For the same compound, in the series on NOD mice (setting [3]), the “levels of IgG anti-NP found in the periphery” value is recorded as “equivalent” and the “levels of IgM anti-NP found in the periphery” value is “equivalent”.

For the origin of these results see US11701361B2, “p110-delta inhibitors treat and prevent autoimmunity while sparing the ability to mount an immune response to exogenous immunogens” (THE REGENTS OF THE UNIVERSITY OF COLORADO, priority 2018, dated 2023).
